These are literature values, as cited in patent US7858656B2, “Controlled release formulations containing an active ingredient, preferably melatonin and the method of preparation” (Ambros Pharma S.R.L., priority 2000, dated 2010).

The conditions of the data set: in various species, including man.

For `COc1ccc2[nH]cc(CCNC(C)=O)c2c1` [melatonin, N-acetyl-5-methoxytryptamine], the half-life of melatonin was 20 to 40 min.
